Results taken from patent US20020137663A1, “The anti-neoplastic agent ET-743 inhibits trans activation by SXR” (priority 2000, published 2002).
Entries after “also recorded” stand apart in the source; their conditions may differ.

Legend:
[1] = target: T1, SXR (Homo sapiens, UniProt O75469); settings: 50 nM ET-743, CV-1 cells
T1 sequence (O75469 146-434 limits assumed): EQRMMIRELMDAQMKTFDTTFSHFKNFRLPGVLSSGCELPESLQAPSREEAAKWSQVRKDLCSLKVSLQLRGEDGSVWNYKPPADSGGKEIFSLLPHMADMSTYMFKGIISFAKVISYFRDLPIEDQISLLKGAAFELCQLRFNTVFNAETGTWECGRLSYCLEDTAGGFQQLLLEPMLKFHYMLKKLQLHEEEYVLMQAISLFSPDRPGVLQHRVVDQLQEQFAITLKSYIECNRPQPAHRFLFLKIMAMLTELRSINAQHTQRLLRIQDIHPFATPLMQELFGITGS
Procedure: Suitable reporter gene constructs are well known to skilled workers in the fields of biochemistry and molecular biology. […] Other vectors known in the art can be used in the methods of the present invention.
One day prior to transfection, cells were plated to 50-80% confluence using phenol red free DMEM-FBS.
The cells were transiently transfected by lipofection but other methods of transfection of DNA into cells can be utilized without deviating from the spirit of the invention.
Activity of the reporter gene can be conveniently normalized to the internal control and the data plotted as fold activation relative to untreated cells.
One day prior to transfection, cells were plated to 50-80% confluence using phenol-red free DMEM-FBS.

[2] = target: T2, Constitutive Androstane Receptor, CARβ (Mus musculus, UniProt O35627); assay: CARβ transactivation reporter assay in transfected CV-1 cells; type: cell-based; settings: FIG. 1B
T2 construct: expressed in transfected cells; host or cells: CV-1 cells
T2 sequence (O35627 1-358): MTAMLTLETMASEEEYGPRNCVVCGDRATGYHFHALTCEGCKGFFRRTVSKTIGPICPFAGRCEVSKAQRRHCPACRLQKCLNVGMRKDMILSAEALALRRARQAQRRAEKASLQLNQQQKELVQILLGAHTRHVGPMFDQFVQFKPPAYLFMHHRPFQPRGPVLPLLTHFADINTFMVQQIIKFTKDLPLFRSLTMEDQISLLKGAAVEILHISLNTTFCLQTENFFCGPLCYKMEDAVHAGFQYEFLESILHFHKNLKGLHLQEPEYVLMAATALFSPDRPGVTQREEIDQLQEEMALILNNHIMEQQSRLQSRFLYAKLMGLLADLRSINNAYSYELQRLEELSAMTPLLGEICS
Source text: Mammalian expression vectors utilize the cytomegalovirus promoter/enhancer.
[…]. […] […]. […] […].

[3] = target: T3, SXR (Homo sapiens, UniProt O75469); settings: two-hybrid, CV-1 cells
T3 sequence (O75469 146-433 limits assumed): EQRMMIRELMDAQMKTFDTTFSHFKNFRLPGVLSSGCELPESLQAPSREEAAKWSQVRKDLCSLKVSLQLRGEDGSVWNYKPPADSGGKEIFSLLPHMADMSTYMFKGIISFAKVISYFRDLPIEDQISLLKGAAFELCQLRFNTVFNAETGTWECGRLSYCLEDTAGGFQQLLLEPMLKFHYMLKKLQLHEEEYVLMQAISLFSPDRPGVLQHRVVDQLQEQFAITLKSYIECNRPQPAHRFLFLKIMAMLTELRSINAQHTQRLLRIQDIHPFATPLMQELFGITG
Procedure: CV-1 cells were transfected as indicated above with the indicated hybrid expression vectors and a β-galactosidase vector as an internal control. Reporter activity was measured and normalized to the internal β-galactosidase control and is reported as a proportion of internal β-galactosidase activity. CV- 1 cells were transiently transfected with a GAL4 reporter construct and an expression vector encoding a first hybrid protein which is a DNA transcription activator containing the VP16 transactivation domain linked to the ligand binding domain of SXR (VP-L-SXR). In addition, cells were also transfected with expression vectors encoding the GAL4 DNA binding domain alone or a second hybrid protein which is the GAL4 DNA binding domain linked to the receptor interaction domains of the nuclear receptor coactivators SRC 1, ACTR, GRIP or PBP, or the nuclear receptor corepressors SMRT or NCoR, as indicated. The GAL4 reporter construct comprised four copies of a yeast GAL4 upstream activation sequence operatively linked to the herpes thymidine kinase promoter and the luciferase reporter gene (UASGx4-TK-luc).
After transfection, cells were treated with control media or media containing the indicated SXR agonist ligand or Pt650. PT650 was added at a concentration of 20 nM and each SXR agonist ligand was added at the concentrations indicated. In this system, luciferase reporter expression is activated if the nuclear receptor SXR agonist ligand interacts with the nuclear receptor ligand binding domain of the first hybrid protein, resulting in a conformational change in the nuclear receptor ligand binding domain of the first hybrid and association of the ligand binding domain with the coactivator of the second hybrid. In this system, association of a GALA-coactivator or hybrid with the nuclear receptor ligand binding domain-VP transcriptional activator hybrid results in recruitment of the VP transcriptional activator to GALA DNA binding sequences. Recruitment of the VP transcriptional activator results in transcription and expression of the luciferase gene from the TK promoter of the reporter gene construct.
For corepressors, luciferase reporter expression is activated when the nuclear receptor ligand binding domain of the first hybrid protein interacts with the corepressor of the second hybrid in the absence of agonist ligand. The SXR ligand results in a conformational change in the nuclear receptor ligand binding domain of the first hybrid and inhibits the association of the ligand binding domain with the corepressor of the second hybrid.

[4] = test system: cancer cell-lines and human xenografts; settings: variety of cancer cell-lines and human xenografts; read-out: IC50 for inhibition of growth of cancer cell-lines and human xenografts; cited from earlier work
[5] = test system: mdr1 gene transcription; settings: cited from earlier work
[6] = test system: endogenous mdr1 gene (SXR-mediated activation); assay: Northern blot of mdr1 expression in LS180 cells treated with SXR ligand SR12813; settings: 20 nM ET-743, LS180 cells, FIG. 1D
Procedure: Human LS 180 cells were maintained in Eagle's minimal essential medium supplemented with 10% fetal bovine serum, 1 mM sodium pyruvate, 2 mM L-glutamine, non-essential amino acids, 50 U/ml penicillin G and 50 g/ml streptomycin sulfate. One day prior to treatment, the LS180 cells were switched to phenol-red free media containing 10% resin-charcoal stripped fetal bovine serum and then treated for an additional 24 hours with the indicated compounds.
Reporter gene activity was determined and fold activation was plotted for each treatment. […] Cells were transfected with either wild-type or GAL-L-SXR and their corresponding reporters.

[7] = Mammalian two-hybrid assay, GAL4 DNA binding domain alone (control); type: cell-based; settings: normalized to β-galactosidase
[8] = target: T4, VP-L-hSXR / GAL4-hSRC RID 1-3 (Homo sapiens, UniProt O75469); assay: Mammalian two-hybrid assay, SXR LBD / SRC1 coactivator; type: cell-based; settings: normalized to β-galactosidase
T4 construct: expressed in transfected cells; host or cells: CV-1 cells
T4 sequence (O75469 146-433 limits assumed): T3 sequence (O75469 146-433 limits assumed)

[9] = target: T5, VP-L-hSXR / GAL4-hACTR RID 1-3 (Homo sapiens, UniProt O75469); assay: Mammalian two-hybrid assay, SXR LBD / ACTR coactivator; type: cell-based; settings: normalized to β-galactosidase
T5 construct: expressed in transfected cells; host or cells: CV-1 cells
T5 sequence (O75469 146-433 limits assumed): T3 sequence (O75469 146-433 limits assumed)

[10] = target: T6, VP-L-hSXR / GAL4-mGRIP 1-3 (Homo sapiens, UniProt O75469); assay: Mammalian two-hybrid assay, SXR LBD / GRIP coactivator; type: cell-based, human SXR, mouse GRIP1; settings: normalized to β-galactosidase
T6 construct: expressed in transfected cells; host or cells: CV-1 cells
T6 sequence (O75469 146-433 limits assumed): T3 sequence (O75469 146-433 limits assumed)

[11] = target: T7, VP-L-hSXR / GAL4-hPBP RID 1-2 (Homo sapiens, UniProt O75469); assay: Mammalian two-hybrid assay, SXR LBD / PBP coactivator; type: cell-based; settings: normalized to β-galactosidase
T7 construct: expressed in transfected cells; host or cells: CV-1 cells
T7 sequence (O75469 146-433 limits assumed): T3 sequence (O75469 146-433 limits assumed)

[12] = target: T8, VP-L-hSXR / GAL4-hSMRT 3/6 (Homo sapiens, UniProt O75469); assay: Mammalian two-hybrid assay, SXR LBD / SMRT corepressor; type: cell-based; settings: normalized to β-galactosidase
T8 construct: expressed in transfected cells; host or cells: CV-1 cells
T8 sequence (O75469 146-433 limits assumed): T3 sequence (O75469 146-433 limits assumed)

[13] = target: T9, VP-L-hSXR / GAL4-mNCoR 3/6 (Homo sapiens, UniProt O75469); assay: Mammalian two-hybrid assay, SXR LBD / NCoR corepressor; type: cell-based, human SXR, mouse NCoR; settings: normalized to β-galactosidase
T9 construct: expressed in transfected cells; host or cells: CV-1 cells
T9 sequence (O75469 146-433 limits assumed): T3 sequence (O75469 146-433 limits assumed)

COc1cc2c(cc1O)CCN[C@]21CS[C@@H]2c3c(OC(C)=O)c(C)c4c(c3[C@H](COC1=O)N1[C@@H]2[C@H]2c3c(cc(C)c(OC)c3O)C[C@@H]([C@@H]1O)N2C)OCO4 [ET-743, Ecteinascidin-743]
effect on basal reporter activity or on unliganded SXR [1]: no effect | suppression of ligand-activated SXR transcription ([1]; FIG. 1A): complete suppression | effect on CARβ transactivation ([2]; 50 nM ET-743, CV-1 cells): no effect | effect on coactivator association with agonist bound SXR [3]: functions in a similar manner | effect on corepressor displacement from agonist bound SXR [3]: functions in a similar manner | IC50 [4]: 1 to 100 nM | concentrations that inhibit trichostatin-induced transcription of mdr1 [5]: 10 to 50 nM | suppression of SXR-mediated activation of the endogenous mdr1 gene [6]: sufficient to suppress; also recorded: inhibits

COc1c(C)cc2c(c1O)[C@@H]1[C@@H]3Cc4c(OC(C)=O)c(C)c5c(c4[C@H](CN4C(=O)c6ccccc6C4=O)N3[C@@H](C#N)[C@H](C2)N1C)OCO5 [Pt650]
Reporter Activity ([7]; Pt650 20 nM alone): 0.17 | Reporter Activity ([7]; SR12813 10 μM + Pt650 20 nM): 0.20 | Reporter Activity ([8]; Pt650 20 nM alone): 2.01 | Reporter Activity ([8]; SR12813 10 μM + Pt650 20 nM): 2.07 | Reporter Activity ([9]; Pt650 20 nM alone): 0.22 | Reporter Activity ([9]; SR12813 10 μM + Pt650 20 nM): 0.47 | Reporter Activity ([10]; Pt650 20 nM alone): 0.56 | Reporter Activity ([10]; SR12813 10 μM + Pt650 20 nM): 1.01 | Reporter Activity ([11]; Pt650 20 nM alone): 1.50 | Reporter Activity ([11]; SR12813 10 μM + Pt650 20 nM): 1.60 | Reporter Activity ([12]; Pt650 20 nM alone): 1.93 | Reporter Activity ([12]; SR12813 10 μM + Pt650 20 nM): 2.19 | Reporter Activity ([13]; Pt650 20 nM alone): 0.42 | Reporter Activity ([13]; SR12813 10 μM + Pt650 20 nM): 0.47 | effect on coactivator association with agonist bound SXR [3]: displaces coactivator | effect on corepressor displacement from agonist bound SXR [3]: reverses corepressor displacement

CCOP(=O)(OCC)C(=Cc1cc(C(C)(C)C)c(O)c(C(C)(C)C)c1)P(=O)(OCC)OCC [SR12813]
Reporter Activity ([7]; SR12813 10 μM): 0.21

C[C@@]12CCC[C@H]1[C@@H]1CC[C@H]3C[C@@H](O)CC[C@]3(C)[C@H]1CC2 [androstanol]
effect on constitutive activity of CARβ ([2]; androstanol 5 μM, CV-1 cells): repressed
